“And” between values parts separate entries of the source, which are not always exact repeats. Identical values can stand only once.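 Compound exposure: 48 hours, 5 concentrations, 96-well plates. Here, GI50 denotes the concentration required for 50% inhibition of growth. TGI marks complete inhibition of growth.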 A value given as a limit tells only on which side of the number the result lay.

Some test systems named below: A498 renal; HOP-62 NSCLC; MALME-3M melanoma; MDA-MB-231 breast; MDA-MB-435; SF-268 CNS; SK-MEL-28 melanoma; UO-31 renal.
Holding throughout (experiment): growth of human tumour cells (NCI), 48 h

Turning to `CC1CCCC(C(O)CC2CC(=O)NC(=O)C2)C1O` (configuration not stated), the TGI with A498 renal, with HOP-62 NSCLC, with MALME-3M melanoma, in the assay with MDA-MB-231 breast, with MDA-MB-435 and in the assay with SF-268 CNS was greater than 100 µM each time. Moreover, the TGI in the assay with SK-MEL-28 melanoma and in the assay with UO-31 renal was greater than 100 µM each time.

As for `c1ccc(CN2COc3c(ccc4c3OCN(Cc3ccccc3)C4)C2)cc1`, the GI50 in the assay on A498 renal is 1.19 µM; in the assay on HOP-62 NSCLC, 0.545 µM; in the assay with MALME-3M melanoma, 3.06 µM; in the assay with MDA-MB-231 breast, 0.564 µM; in the assay on MDA-MB-435, 1.72 µM; with SF-268 CNS it was 0.605 µM. The GI50 was 1.26 µM in the assay on SK-MEL-28 melanoma and 0.122 µM with UO-31 renal. Moreover, the TGI in the assay on A498 renal was greater than 30.3 µM; in the assay on HOP-62 NSCLC it was greater than 100 µM; with MALME-3M melanoma, greater than 100 µM; in the assay on MDA-MB-231 breast, greater than 100 µM; in the assay with MDA-MB-435, greater than 100 µM; in the assay on SF-268 CNS, greater than 35.6 µM. Moreover, the TGI with SK-MEL-28 melanoma was greater than 100 µM; with UO-31 renal, 1.41 µM.

On to `COc1cc(NCCCN=C(N)NC(N)=NC(C)C)c2ncccc2c1`, for which the GI50 in the assay on A498 renal is 36.6 µM; in the assay with HOP-62 NSCLC, 35.2 µM; in the assay on MALME-3M melanoma, 0.813 µM; with MDA-MB-231 breast, 1.96 µM; in the assay with MDA-MB-435, 17.7 µM; in the assay on SF-268 CNS it was 4.98 µM. Also, the GI50 with SK-MEL-28 melanoma is 13.6 µM; in the assay with UO-31 renal it was greater than 97.1 µM. The TGI was greater than 88.8 µM in the assay with A498 renal; greater than 84.8 µM with HOP-62 NSCLC; 4.1 µM with MALME-3M melanoma; 14.3 µM in the assay on MDA-MB-231 breast; 35 µM in the assay with MDA-MB-435; greater than 57.5 µM in the assay on SF-268 CNS. Moreover, the TGI in the assay on SK-MEL-28 melanoma was 35.2 µM; with UO-31 renal, greater than 100 µM.

Regarding `C=CC(=O)Nc1cc(C)ccc1Nc1nc(Nc2cc(OC)ncc2C)ncc1C(F)(F)F`, the GI50 in the assay on A498 renal is 0.157 µM; in the assay on HOP-62 NSCLC, 0.741 µM; in the assay with MALME-3M melanoma it was 0.0211 µM; in the assay on MDA-MB-231 breast, 0.336 µM; in the assay on MDA-MB-435 it was 0.308 µM; in the assay on SF-268 CNS, 1.28 µM. Further, the GI50 was 0.0883 µM in the assay on SK-MEL-28 melanoma and 0.214 µM in the assay with UO-31 renal. In addition, the TGI in the assay with A498 renal is 0.598 µM; in the assay on HOP-62 NSCLC, greater than 66.7 µM; in the assay with MALME-3M melanoma it was 0.161 µM; in the assay with MDA-MB-231 breast, 1.87 µM; with MDA-MB-435, 3.85 µM; in the assay on SF-268 CNS, greater than 100 µM. In addition, the results for the TGI in the assay on SK-MEL-28 melanoma and in the assay on UO-31 renal were 1.08 µM and 2.27 µM, respectively.

As to `CCC(=C/[C@H](C)C/C=C/C(C)=C/[C@@H](C)C(=O)[C@@H](C)[C@H](O)[C@@H](C)CC)/C=C/[C@@H]1OC(=O)C=C[C@H]1C`, the GI50 with A498 renal, in the assay on HOP-62 NSCLC, with MALME-3M melanoma, in the assay with MDA-MB-231 breast, in the assay with MDA-MB-435 and in the assay with SF-268 CNS was less than 0.01 µM each time. The GI50 in the assay with SK-MEL-28 melanoma and in the assay on UO-31 renal was less than 0.01 µM each time. Besides, the TGI was less than 0.01 µM in the assay with A498 renal; less than 0.01 µM in the assay on HOP-62 NSCLC; 0.0157 µM in the assay on MALME-3M melanoma; 1.77 µM in the assay on MDA-MB-231 breast; less than 0.01 µM in the assay on MDA-MB-435; 1.58 µM with SK-MEL-28 melanoma.

For `CC(C)O/N=C/c1cc(NC(=S)OC(C)C)ccc1Cl`, the TGI in the assay on A498 renal is greater than 76.5 µM; with HOP-62 NSCLC, greater than 70.6 µM; in the assay with MALME-3M melanoma, greater than 100 µM; in the assay with MDA-MB-231 breast, 62 µM; in the assay with MDA-MB-435, greater than 100 µM; in the assay on SF-268 CNS, greater than 69.8 µM. The TGI with SK-MEL-28 melanoma is greater than 91.8 µM; in the assay with UO-31 renal, greater than 61.2 µM.

As to `Cc1nc(-c2cn3c(n2)-c2ccc(-c4cnn(C(C)(C)C(N)=O)c4)cc2OCC3)n(C(C)C)n1`, the GI50 in the assay on A498 renal is 0.143 µM and 0.274 µM; with HOP-62 NSCLC it was 0.726 µM and 4.51 µM; in the assay on MDA-MB-231 breast, 6.44 µM and 4.11 µM; in the assay on MDA-MB-435, 2.31 µM and 2.67 µM; with SF-268 CNS, 3.7 µM and 2.29 µM; in the assay on SK-MEL-28 melanoma, 0.535 µM and 0.414 µM. Moreover, in the assay with UO-31 renal, the GI50 was 0.185 µM and 0.14 µM. Also, the TGI in the assay with A498 renal was 1.15 µM and 1.67 µM; in the assay on HOP-62 NSCLC, 60.4 µM and > 10 µM; in the assay with MALME-3M melanoma, 3.12 µM and > 10 µM; in the assay with MDA-MB-231 breast it was 35.9 µM and > 10 µM; in the assay on MDA-MB-435, 26.2 µM and > 10 µM; with SF-268 CNS, greater than 100 µM. Further, the TGI in the assay on SK-MEL-28 melanoma is greater than 38.3 µM; in the assay on UO-31 renal it was 15.3 µM and > 8.44 µM.

As to `O=C1C=CC(=Nc2cc(Br)c(O)c(Br)c2)C=C1`, the GI50 is 26.5 µM in the assay on A498 renal; 28.4 µM in the assay with HOP-62 NSCLC; 18.4 µM in the assay with MALME-3M melanoma; 31.5 µM with MDA-MB-231 breast; 18.9 µM in the assay with MDA-MB-435; 24.6 µM with SF-268 CNS. In addition, the GI50 with SK-MEL-28 melanoma was 31.7 µM; with UO-31 renal it was 22 µM. Also, the TGI in the assay with A498 renal is greater than 100 µM; with HOP-62 NSCLC, 76.1 µM; in the assay on MALME-3M melanoma it was greater than 100 µM; in the assay on MDA-MB-231 breast it was greater than 100 µM; in the assay on MDA-MB-435, greater than 100 µM; with SF-268 CNS, greater than 100 µM. The TGI in the assay with SK-MEL-28 melanoma and with UO-31 renal was greater than 100 µM in each case.

Regarding `O=C(c1ccccc1)C(CN1CCCCC1)c1ccccc1` (configuration not stated), the GI50 with A498 renal is 9.33 µM; with HOP-62 NSCLC, 2.03 µM; in the assay on MALME-3M melanoma, 1.44 µM; in the assay with MDA-MB-231 breast, 1.82 µM; in the assay on MDA-MB-435 it was 1.67 µM; in the assay with SF-268 CNS, 3.98 µM. Further, the results for the GI50 in the assay on SK-MEL-28 melanoma and in the assay with UO-31 renal were 3.25 µM and 1.58 µM, respectively. The TGI turned out to be 22 µM in the assay with A498 renal; 5.9 µM in the assay on HOP-62 NSCLC; 3.35 µM in the assay with MALME-3M melanoma; 4.37 µM in the assay with MDA-MB-231 breast; 4.19 µM in the assay with MDA-MB-435; 16.1 µM in the assay with SF-268 CNS. The results for the TGI with SK-MEL-28 melanoma and in the assay with UO-31 renal were 11.4 µM and 3.07 µM, respectively.

Regarding `Cc1nnc(-c2cccc(-c3ccc(C(=O)NCC4CC4)cc3)c2)o1`, the GI50 in the assay with A498 renal was greater than 7.79 µM; with HOP-62 NSCLC it was greater than 25 µM; with MALME-3M melanoma, greater than 25 µM; in the assay with MDA-MB-231 breast, greater than 25 µM; in the assay on MDA-MB-435, greater than 25 µM; with SF-268 CNS, greater than 25 µM. The GI50 in the assay with SK-MEL-28 melanoma and with UO-31 renal was greater than 25 µM throughout. Besides, the TGI in the assay with A498 renal, in the assay with HOP-62 NSCLC, in the assay with MALME-3M melanoma, with MDA-MB-231 breast, in the assay on MDA-MB-435 and in the assay on SF-268 CNS was greater than 25 µM throughout. The TGI with SK-MEL-28 melanoma and in the assay on UO-31 renal was greater than 25 µM in each case.

On to `Cn1c2c(c3ccc([N+](=O)[O-])cc3c1=O)C(=O)c1ccccc1-2`, for which the GI50 with A498 renal is greater than 100 µM; in the assay on HOP-62 NSCLC, greater than 100 µM; in the assay on MALME-3M melanoma, 70.3 µM; in the assay with MDA-MB-231 breast it was greater than 100 µM; with MDA-MB-435, 47.4 µM; in the assay with SF-268 CNS, greater than 100 µM. In addition, the GI50 in the assay on SK-MEL-28 melanoma and in the assay with UO-31 renal was greater than 100 µM each time. For the same compound, the TGI in the assay with A498 renal, in the assay with HOP-62 NSCLC, in the assay on MALME-3M melanoma, in the assay on MDA-MB-231 breast, with MDA-MB-435 and with SF-268 CNS was greater than 100 µM each time. The TGI in the assay with SK-MEL-28 melanoma and in the assay on UO-31 renal was greater than 100 µM in each case.

For `Cc1nc2ccccc2c(/C=C/c2ccc(Cl)cc2)c1C(=O)/C=C/c1ccc(C(F)(F)F)cc1`, the GI50 is 1.32 µM in the assay with A498 renal; 0.877 µM in the assay on HOP-62 NSCLC; 0.404 µM in the assay with MALME-3M melanoma; 0.301 µM in the assay with MDA-MB-231 breast; 0.243 µM in the assay with MDA-MB-435; 0.872 µM in the assay with SF-268 CNS. For the same compound, the GI50 is 0.369 µM in the assay with SK-MEL-28 melanoma and 0.238 µM with UO-31 renal. For the same compound, the TGI with A498 renal worked out at 2.62 µM; in the assay with HOP-62 NSCLC, 2.31 µM; with MALME-3M melanoma it was 1.56 µM; in the assay on MDA-MB-231 breast, 0.947 µM; with MDA-MB-435, 0.655 µM; with SF-268 CNS, 2.78 µM. Further, the TGI with SK-MEL-28 melanoma amounted to 1.29 µM; in the assay with UO-31 renal, 0.807 µM.

Consider `Cn1cnc([N+](=O)[O-])c1Sc1nc(N)nc2c1ncn2C1CC(O)C(CO)O1` (configuration not stated), for which the TGI in the assay with A498 renal is 71.2 µM; with HOP-62 NSCLC, greater than 100 µM; in the assay with MALME-3M melanoma, greater than 100 µM; with MDA-MB-231 breast, greater than 100 µM; with MDA-MB-435 it was greater than 58.8 µM; in the assay on SF-268 CNS it was greater than 100 µM. The TGI was greater than 100 µM with SK-MEL-28 melanoma and 44.9 µM in the assay with UO-31 renal.

On to `[N-]=[N+]=NCCCCCC(=O)OC(C(=O)c1ccccc1)c1cccc(OCC(=O)NCCOCCOCCNC(=O)CCCC[C@@H]2SC[C@@H]3NC(=O)N[C@@H]32)c1` (some centres not stated), for which the GI50 in the assay with A498 renal is greater than 100 µM; with HOP-62 NSCLC, greater than 100 µM; in the assay with MALME-3M melanoma, greater than 100 µM; in the assay with MDA-MB-231 breast it was 44 µM; with MDA-MB-435, 50.6 µM; in the assay on SF-268 CNS it was greater than 100 µM. Further, the GI50 in the assay with SK-MEL-28 melanoma and in the assay on UO-31 renal was greater than 100 µM throughout. The TGI with A498 renal, with HOP-62 NSCLC, in the assay with MALME-3M melanoma, in the assay with MDA-MB-231 breast, in the assay with MDA-MB-435 and in the assay on SF-268 CNS was greater than 100 µM each time. Moreover, the TGI in the assay with SK-MEL-28 melanoma and in the assay on UO-31 renal was greater than 100 µM each time.

The values are drawn from PubChem BioAssay (NCI).
